These results are taken from US20240425491A1, “HETEROARYL COMPOUNDS USEFUL IN THE TREATMENT OF COGNITIVE DISORDERS” (University College Cardiff Consultants Limited, priority 2021, published 2024).

Counter-ions that a name gives are not always drawn.

Assay [1] has as its target T1, human α5β3γ2 GABAARs in mouse L(tk−) cells (Homo sapiens, UniProt P18507+P31644).
T1 construct: expressed in transfected cells; host or cells: mouse L(tk−) cells, dexamethasone-inducible vector pMSGneo
Kind of assay: In vitro electrophysiological recording assay (α5-GABAAR relative efficacy), QPatch. Format: cell-based. The note with it: GABA EC10-20. In short, it runs like this: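 Whole-cell QPatch recordings at 20-22° C, −65 mV holding, in dexamethasone-induced (1 μM, 24 h) L(tk−) cells. Compound pre-applied ≥1 min, then co-applied with GABA EC10-20; percentage change in leak-corrected peak current, taken at ≥100× Ki, normalised to DMCM efficacy; 0.1% DMSO final.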
(Patch clamp records ionic current or voltage across a cell membrane.)

In assay [2] the target is T2, human recombinant GABAAR containing α5β3γ2 subunits (benzodiazepine site) (Homo sapiens, UniProt P18507+P31644).
T2 construct: expressed in transfected cells; host or cells: mouse L(tk−) cells, dexamethasone-inducible vector pMSGneo
T2 sequence (P31644 32-462): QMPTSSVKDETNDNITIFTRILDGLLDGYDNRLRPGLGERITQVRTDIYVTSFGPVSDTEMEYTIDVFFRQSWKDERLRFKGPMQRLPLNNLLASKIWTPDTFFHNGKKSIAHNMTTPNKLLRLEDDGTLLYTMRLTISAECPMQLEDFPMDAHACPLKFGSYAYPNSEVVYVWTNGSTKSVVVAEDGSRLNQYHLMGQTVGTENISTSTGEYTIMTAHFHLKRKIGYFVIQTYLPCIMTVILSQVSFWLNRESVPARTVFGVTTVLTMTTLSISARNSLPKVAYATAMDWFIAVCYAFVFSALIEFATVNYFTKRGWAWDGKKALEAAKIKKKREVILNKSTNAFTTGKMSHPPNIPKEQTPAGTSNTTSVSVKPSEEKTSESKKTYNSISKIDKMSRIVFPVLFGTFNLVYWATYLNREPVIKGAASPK
T2 sequence (P28472 26-473 partner): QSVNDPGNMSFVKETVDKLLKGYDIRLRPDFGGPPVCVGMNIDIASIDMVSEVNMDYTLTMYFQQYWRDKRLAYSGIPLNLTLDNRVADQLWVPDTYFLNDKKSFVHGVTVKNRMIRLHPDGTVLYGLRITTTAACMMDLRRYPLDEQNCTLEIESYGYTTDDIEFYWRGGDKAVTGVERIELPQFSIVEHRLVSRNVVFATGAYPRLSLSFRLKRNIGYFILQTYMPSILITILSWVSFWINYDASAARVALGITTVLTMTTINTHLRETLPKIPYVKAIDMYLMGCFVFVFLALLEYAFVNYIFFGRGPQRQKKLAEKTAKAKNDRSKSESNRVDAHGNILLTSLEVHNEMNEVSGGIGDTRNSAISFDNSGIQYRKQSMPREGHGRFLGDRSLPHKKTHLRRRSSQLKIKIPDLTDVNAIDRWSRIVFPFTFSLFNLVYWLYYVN
T2 sequence (P18507 40-475): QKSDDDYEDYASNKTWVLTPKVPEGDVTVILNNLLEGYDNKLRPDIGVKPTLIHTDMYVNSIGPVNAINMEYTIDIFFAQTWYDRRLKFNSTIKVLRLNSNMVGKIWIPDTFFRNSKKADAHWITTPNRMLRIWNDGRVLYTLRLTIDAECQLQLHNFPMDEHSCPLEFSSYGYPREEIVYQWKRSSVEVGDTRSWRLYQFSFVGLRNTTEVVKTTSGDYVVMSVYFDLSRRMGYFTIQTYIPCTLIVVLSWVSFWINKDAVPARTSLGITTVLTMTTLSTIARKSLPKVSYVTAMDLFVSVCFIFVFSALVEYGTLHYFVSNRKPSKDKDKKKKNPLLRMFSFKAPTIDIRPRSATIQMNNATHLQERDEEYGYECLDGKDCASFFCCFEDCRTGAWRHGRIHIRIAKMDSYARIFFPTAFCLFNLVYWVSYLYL
Kind of assay: In vitro radioligand binding assay (α5-GABAAR Ki). The following applies: inhibition of [3H]Ro15-1788 binding, membranes of L(tk−) cells expressing human α5β3γ2; read-out: α5-GABAAR Ki. In short, it runs like this: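 Membranes from mouse L(tk^−) cells stably expressing human α5β3γ2 GABAAR incubated 1 h at 4° C with 4 nM [^3H]Ro15-1788 and test compound; nonspecific binding with 1 μM TP003. Filter-bound radioactivity counted; Ki from IC50 by Cheng-Prusoff using measured Kd.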

T1 sequence (P31644 32-462): as the sequence (P31644 32-462) above
T1 sequence (P28472 26-473 partner): as the sequence (P28472 26-473 partner) above
T1 sequence (P18507 40-475): as the sequence (P18507 40-475) above

With `COc1nc(-c2c[nH]c(=O)c(F)c2)ccc1NC(=O)c1c(C)nnn1-c1ccccc1` [Example 164, N-(5′-Fluoro-6-methoxy-6′-oxo-1′,6′-dihydro-[2,3′-bipyridin]-5-yl)-4-methyl-1-phenyl-1H-1,2,3-triazole-5-carboxamide], in assay [1] (Conc 3 μM), the “α5-GABAAR Relative Efficacy (to DMCM), Qpatch” value (“α5-GABAAR Relative Efficacy” for short) is −0.65. Besides, the Ki – broadly, a dissociation constant, usually derived from enzyme kinetics or from competition with a known ligand – in assay [2] was found to be 27.2 nM.
Taken in the same sequence, the figures for `COc1nc(-c2cnc(C(N)=O)nc2)ccc1NC(=O)c1c(C)nnn1-c1ccccc1` [Example 165, 5-(6-Methoxy-5-(4-methyl-1-phenyl-1H-1,2,3-triazole-5-carboxamido)pyridin-2-yl)pyrimidine-2-carboxamide] were −0.84 and 35.4 nM.
The corresponding values for `CNc1ncc(-c2ccc(NC(=O)c3c(C)nnn3-c3ccccc3)c(OC)n2)cn1` [Example 166, N-(2-Methoxy-6-(2-(methylamino)pyrimidin-5-yl)pyridin-3-yl)-4-methyl-1-phenyl-1H-1,2,3-triazole-5-carboxamide] are −0.98 and 31 nM.
Turning to `COc1nc(-c2cnc(NCCN(C)C)nc2)ccc1NC(=O)c1c(-c2ccccc2)noc1C` [Example 167, N-[6-[2-[2-(Dimethylamino)ethylamino]pyrimidin-5-yl]-2-methoxy-3-pyridyl]-5-methyl-3-phenyl-isoxazole-4-carboxamide], the “α5-GABAAR Relative Efficacy” value in assay [1] (Conc 1 μM) is −0.92. In addition, the Ki in assay [2] is 0.7 nM.
`CNCc1ncc(-c2ccc(NC(=O)c3c(-c4ccccc4)noc3C)c(OC)n2)cn1.Cl` [Example 168, N-[2-Methoxy-6-[2-(methylaminomethyl)pyrimidin-5-yl]-3-pyridyl]-5-methyl-3-phenyl-isoxazole-4-carboxamide hydrochloride]: the “α5-GABAAR Relative Efficacy” value in assay [1] (Conc 0.3 μM) is listed as −0.72. The Ki in assay [2] worked out at 2.7 nM.
As to `CNCc1ncc(-c2cnc(NC(=O)c3c(-c4ccccc4)noc3C)c(OC)n2)cn1.Cl` [Example 169, N-[3-Methoxy-5-[2-(methylaminomethyl)pyrimidin-5-yl]pyrazin-2-yl]-5-methyl-3-phenyl-isoxazole-4-carboxamide hydrochloride], in assay [1] (Conc 1 μM), the “α5-GABAAR Relative Efficacy” value was −0.88. Besides, the Ki in assay [2] amounted to 5.2 nM.
As for `CNCCNc1ncc(-c2ccc(NC(=O)c3c(-c4ccccc4)noc3C)c(OC)n2)cn1.Cl` [Example 170, N-[2-Methoxy-6-[2-[2-(methylamino)ethylamino]pyrimidin-5-yl]-3-pyridyl]-5-methyl-3-phenyl-isoxazole-4-carboxamide hydrochloride], in assay [1] (Conc 0.1 μM), the “α5-GABAAR Relative Efficacy” value is given as −0.84. In addition, in assay [2], the Ki is 0.5 nM.
On to `COc1nc(-c2cnc(NCCN)nc2)ccc1NC(=O)c1c(-c2ccccc2)noc1C.Cl` [Example 171, N-[6-[2-(2-Aminoethylamino)pyrimidin-5-yl]-2-methoxy-3-pyridyl]-5-methyl-3-phenyl-isoxazole-4-carboxamide hydrochloride], for which the “α5-GABAAR Relative Efficacy” value in assay [1] (Conc 0.1 μM) is listed as −0.75. The Ki in assay [2] was 3.8 nM.
Taken in the same sequence, the figures for `COc1nc(-c2cnc(C(=O)NCCN(C)C)nc2)ccc1NC(=O)c1c(-c2ccccc2)noc1C` [Example 172, N-[6-[2-[2-(Dimethylamino)ethylcarbamoyl]pyrimidin-5-yl]-2-methoxy-3-pyridyl]-5-methyl-3-phenyl-isoxazole-4-carboxamide] were −0.80 and 0.2 nM.
Consider `CNCCNC(=O)c1ncc(-c2ccc(NC(=O)c3c(-c4ccccc4)noc3C)c(OC)n2)cn1.Cl` [Example 173, N-[2-Methoxy-6-[2-[2-(methylamino)ethylcarbamoyl]pyrimidin-5-yl]-3-pyridyl]-5-methyl-3-phenyl-isoxazole-4-carboxamide hydrochloride], for which the “α5-GABAAR Relative Efficacy” value in assay [1] (Conc 0.1 μM) is −0.88. In addition, the Ki in assay [2] came out at 0.3 nM.
On to `COc1nc(-c2ccn3nc(N)nc3c2)ccc1NC(=O)c1c(-c2ccccc2)nnn1C` [Example 174, N-(6-(2-Amino-[1,2,4]triazolo[1,5-a]pyridin-7-yl)-2-methoxypyridin-3-yl)-1-methyl-4-phenyl-1H-1,2,3-5-carboxamide], for which, in assay [1] (Conc 0.3 μM), the “α5-GABAAR Relative Efficacy” value was −0.84. Moreover, the Ki in assay [2] is 1.4 nM.
On to `COc1nc(-c2cnc(NCCO)nc2)ccc1NC(=O)c1c(-c2ccccc2)noc1C` [Example 175, N-[6-[2-(2-Hydroxyethylamino)pyrimidin-5-yl]-2-methoxy-3-pyridyl]-5-methyl-3-phenyl-isoxazole-4-carboxamide], for which the “α5-GABAAR Relative Efficacy” value in assay [1] (Conc 0.1 μM) is on record as −0.89. In assay [2], the Ki stood at 0.5 nM.
`Cc1onc(-c2ccccc2)c1C(=O)Nc1ccc(-n2ccnc2)nc1N(C)C` [Example 176, N-[2-(Dimethylamino)-6-imidazol-1-yl-3-pyridyl]-5-methyl-3-phenyl-isoxazole-4-carboxamide]: the “α5-GABAAR Relative Efficacy” value in assay [1] (Conc 1 μM) is listed as −0.36. The Ki in assay [2] came out at 9 nM.
With `COc1nc(-n2cnc3c2CCNC3)ccc1NC(=O)c1c(-c2ccccc2)noc1C.Cl` [Example 178, N-[2-methoxy-6-(4,5,6,7-tetrahydroimidazo[4,5-c]pyridin-1-yl)-3-pyridyl]-5-methyl-3-phenyl-isoxazole-4-carboxamide hydrochloride], in assay [1] (Conc 0.3 μM), the “α5-GABAAR Relative Efficacy” value is given as −0.62. Also, in assay [2], the Ki came out at 2 nM.
`CNCc1ccc(-c2ccc(NC(=O)c3c(-c4ccccc4)noc3C)c(OC)n2)cc1.Cl` [Example 183, N-[2-Methoxy-6-[4-(methylaminomethyl)phenyl]-3-pyridyl]-5-methyl-3-phenyl-isoxazole-4-carboxamide hydrochloride]: the “α5-GABAAR Relative Efficacy” value in assay [1] (Conc 3 μM) is recorded as −0.68. For the same compound, the Ki in assay [2] is 14.2 nM.
On to `COc1nc(-c2cnc(CN)nc2)ccc1NC(=O)c1c(-c2ccc(F)cc2)nnn1C.Cl` [Example 184, N-(6-(2-(Aminomethyl)pyrimidin-5-yl)-2-methoxypyridin-3-yl)-4-(4-fluorophenyl)-1-methyl-1H-1,2,3-triazole-5-carboxamide hydrochloride], for which the “α5-GABAAR Relative Efficacy” value in assay [1] (Conc 0.3 μM) was −0.45. For the same compound, in assay [2], the inhibition constant Ki amounted to 1.5 nM.
Regarding `COc1nc(-c2ncn3c2CN(C)CC3)ccc1NC(=O)c1c(-c2ccccc2)noc1C` [Example 186, N-(2-Methoxy-6-(7-methyl-5,6,7,8-tetrahydroimidazol[1,5-a]pyrazin-1-yl)pyridin-3-yl)-5-methyl-3-phenylisoxazole-4-carboxamide], the “α5-GABAAR Relative Efficacy” value in assay [1] (Conc 3 μM) was −0.69. The Ki in assay [2] worked out at 17.5 nM.
On to `COc1nc(-c2ncn3c2CNCC3)ccc1NC(=O)c1c(-c2ccccc2)noc1C` [Example 187, N-(2-Methoxy-6-(5,6,7,8-tetrahydroimidazo[1,5-a]pyrazin-1-yl)pyridin-3-yl)-5-methyl-3-phenylisoxazole-4-carboxamide dihydrochloride], for which the “α5-GABAAR Relative Efficacy” value in assay [1] (Conc 3 μM) was −0.46. In addition, in assay [2], the Ki turned out to be 23.5 nM.
Take `COc1nc(-c2cnc(NC3CNC3)nc2)ccc1NC(=O)c1c(-c2ccccc2)noc1C` [Example 188, N-[6-[2-(Azetidin-3-ylamino)pyrimidin-5-yl]-2-methoxy-3-pyridyl]-5-methyl-3-phenyl-isoxazole-4-carboxamide]: the “α5-GABAAR Relative Efficacy” value in assay [1] (Conc 0.1 μM) is given as −1.08. The Ki in assay [2] came to 0.5 nM.
In the case of `COc1nc(-c2cn(CCN)cn2)ccc1NC(=O)c1c(-c2ccccc2)noc1C` [Example 200, N-(6-(1-(2-Aminoethyl)-1H-imidazol-4-yl)-2-methoxypyridin-3-yl)-5-methyl-3-phenylisoxazole-4-carboxamide dihydrochloride], the “α5-GABAAR Relative Efficacy” value in assay [1] (Conc 3 μM) was −0.53. In assay [2], the Ki turned out to be 16.8 nM.
For `Cc1onc(-c2ccc(F)cc2)c1C(=O)Nc1ccc(-n2ccnc2)nc1OC(C)C` [Example 204, 3-(4-Fluorophenyl)-N-(6-imidazol-1-yl-2-isopropoxy-3-pyridyl)-5-methyl-isoxazole-4-carboxamide], in assay [1] (Conc 0.1 μM), the “α5-GABAAR Relative Efficacy” value is recorded as −0.39. For the same compound, the Ki in assay [2] is 1.1 nM.
The corresponding values for `Cc1onc(-c2ccc(F)cc2)c1C(=O)Nc1ccc(-c2cnc(CN)nc2)nc1OC(C)C.Cl` [Example 205, N-(6-(2-(Aminomethyl)pyrimidin-5-yl)-2-isopropoxypyridin-3-yl)-3-(4-fluorophenyl)-5-methylisoxazole-4-carboxamide hydrochloride] are −0.61 and 0.4 nM.
